Data on 18 compounds can be found in US9227971B2, “Pyrazolo[1,5-a]pyrimidine compounds as mTOR inhibitors” (Merck Sharp & Dohme Corp., priority 2010, dated 2016).

Assay [1] has as its system phosphorylated 4E-BP1 Thr37/46 (p4E-BP1 Thr37/46), mTORC1 activity, PC3 cells. Put plainly: mTOR target engagement assay, immunofluorescent cell-based, p4E-BP1 Thr37/46 readout (mTORC1 activity). Particulars: read-out: p4E-BP1 Thr37/46 IC50. An outline of the steps: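 Seed PC3 cells overnight; treat with compound dilutions for ninety minutes at 37° C; fix with glyoxal and block; stain with anti-p4E-BP1 Thr37/46 overnight at 4° C, then fluorescent secondary; read fluorescence and fit IC50 against DMSO-only controls.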

The subject of assay [2] is phosphorylated AKT Ser473 (pAKT S473), mTORC2 activity, PC3 cells. Put plainly: mTOR target engagement assay, immunofluorescent cell-based, pAKT S473 readout (mTORC2 activity). The method in brief: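 After blocking, cells were stained overnight at 4 °C with anti-pAKT S473 antibody, then a fluorescent secondary; inhibition was read as reduced fluorescence intensity.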
[3] abbreviates: Homo sapiens, PC-3, PC3 cells, compound treatment ninety minutes at 37° C.
Where [4] appears, read: Homo sapiens, PC-3, Table 3-1, PC3 cells.
Where [5] appears, read: Homo sapiens, PC-3, Table 6-1, PC3 cells.
Setting [6] is: Homo sapiens, PC-3, Table 7-2, PC3 cells.

Like-named read-outs stand apart in the source and are kept apart here.

In the case of `CC(=O)c1c([C@@H]2C[C@H]3CC[C@@H](C2)N3C(=O)c2nnc[nH]2)nc2c(-c3ccc(-n4cc(C)cn4)nc3)cnn2c1N` [Compound 1.1.135, 1-(5-((1R,3s,5S)-8-(4H-1,2,4-triazole-3-carbonyl)-8-azabicyclo[3.2.1]octan-3-yl)-7-amino-3-(6-(4-methyl-1H-pyrazol-1-yl)pyridin-3-yl)pyrazolo[1,5-a]pyrimidin-6-yl)ethanone], the IC50 in assay [1] (setting [3]) and in assay [2] (setting [3]) was 1 to 100 nM in each case.
For the compound `CS(=O)(=O)c1c([C@@H]2C[C@H]3CC[C@@H](C2)N3C(=O)c2ccnc(N)n2)nc2c(-c3ccc(-c4ccccc4)nc3)cnn2c1N` [Compound 3.143, ((1R,3s,5S)-3-(7-amino-6-(methylsulfonyl)-3-(6-phenylpyridin-3-yl)pyrazolo[1,5-a]pyrimidin-5-yl)-8-azabicyclo[3.2.1]octan-8-yl)(2-aminopyrimidin-4-yl)methanone], the IC50 in assay [1] (setting [4]) and in assay [2] (setting [4]) was 100 to 1000 nM each time.
As for `CNC(=O)N1[C@@H]2CC[C@H]1C[C@H](c1nc3c(-c4ccc(-c5ccccc5)nc4)cnn3c(N)c1S(C)(=O)=O)C2` [Compound 3.30, (1R,3s,5S)-3-(7-amino-6-(methylsulfonyl)-3-(6-phenylpyridin-3-yl)pyrazolo[1,5-a]pyrimidin-5-yl)-N-methyl-8-azabicyclo[3.2.1]octane-8-carboxamide], the IC50 in assay [1] (setting [4]) and in assay [2] (setting [4]) was 100 to 1000 nM throughout.
For the compound `CS(=O)(=O)c1c([C@@H]2C[C@H]3CC[C@@H](C2)N3C(=O)c2nc(C(F)(F)F)n[nH]2)nc2c(-c3ccc(-c4ccccc4)nc3)cnn2c1N` [Compound 3.99, ((1R,3s,5S)-3-(7-amino-6-(methylsulfonyl)-3-(6-phenylpyridin-3-yl)pyrazolo[1,5-a]pyrimidin-5-yl)-8-azabicyclo[3.2.1]octan-8-yl)(3-(trifluoromethyl)-1H-1,2,4-triazol-5-yl)methanone], the IC50 in assay [1] (setting [4]) and in assay [2] (setting [4]) was 1000 to 10000 nM each time.
For the compound `Cc1nnc(C(=O)N2[C@@H]3CC[C@H]2C[C@H](c2nc4c(-c5ccc(-c6ccc(F)cc6F)nc5)cnn4c(N)c2S(C)(=O)=O)C3)[nH]1` [Compound 3.127, ((1R,3s,5S)-3-(7-amino-3-(6-(2,4-difluorophenyl)pyridin-3-yl)-6-(methylsulfonyl)pyrazolo[1,5-a]pyrimidin-5-yl)-8-azabicyclo[3.2.1]octan-8-yl)(5-methyl-4H-1,2,4-triazol-3-yl)methanone], the results for the IC50 in assay [1] (setting [4]) and in assay [2] (setting [4]) were 1 to 100 nM and 100 to 1000 nM, respectively.
For `COc1ccc(-c2ccc(-c3cnn4c(N)c(S(C)(=O)=O)c([C@@H]5C[C@H]6CC[C@@H](C5)N6C(=O)c5nnc[nH]5)nc34)cn2)cc1Cl` [Compound 3.51, ((1R,3s,5S)-3-(7-amino-3-(6-(3-chloro-4-methoxyphenyl)pyridin-3-yl)-6-(methylsulfonyl)pyrazolo[1,5-a]pyrimidin-5-yl)-8-azabicyclo[3.2.1]octan-8-yl)(4H-1,2,4-triazol-3-yl)methanone], the IC50 in assay [1] (setting [4]) and in assay [2] (setting [4]) was 1 to 100 nM each time.
In the case of `CC(=O)c1c([C@@H]2C[C@H]3CC[C@@H](C2)N3C(=O)CO)nc2c(-c3ccc(-c4ncc[nH]4)nc3)cnn2c1N` [Compound 6.3, 1-((1R,3s,5S)-3-(3-(6-(1H-imidazol-2-yl)pyridin-3-yl)-6-acetyl-7-aminopyrazolo[1,5-a]pyrimidin-5-yl)-8-azabicyclo[3.2.1]octan-8-yl)-2-hydroxyethanone], the IC50 in assay [1] (setting [5]) and in assay [2] (setting [5]) was 1 to 100 nM throughout.
On to `CS(=O)(=O)c1c([C@@H]2C[C@H]3CC[C@@H](C2)N3C(=O)CO)nc2c(-c3ccc(CO)c(F)c3)cnn2c1N` [Compound 8.43, 1-((1R,3s,5S)-3-(7-amino-3-(3-fluoro-4-(hydroxymethyl)phenyl)-6-(methylsulfonyl)pyrazolo[1,5-a]pyrimidin-5-yl)-8-azabicyclo[3.2.1]octan-8-yl)-2-hydroxyethanone], for which the IC50 in assay [1] (Homo sapiens, PC-3, PC3 cells) was in the range of 100 to 1000 nM; in assay [2] (Homo sapiens, PC-3, PC3 cells), 100 to 1000 nM.
Turning to `COc1ncc(-c2ccc(-c3cnn4c(N)c(S(C)(=O)=O)c([C@@H]5C[C@H]6CC[C@@H](C5)N6C(=O)c5nnc[nH]5)nc34)cn2)cn1` [Compound 3.58, ((1R,3s,5S)-3-(7-amino-3-(6-(2-methoxypyrimidin-5-yl)pyridin-3-yl)-6-(methylsulfonyl)pyrazolo[1,5-a]pyrimidin-5-yl)-8-azabicyclo[3.2.1]octan-8-yl)(4H-1,2,4-triazol-3-yl)methanone], the IC50 in assay [1] (Table 3-1, PC3 cells) was in the range of 1000 to 10000 nM; in assay [2] (Table 3-1, PC3 cells), 1000 to 10000 nM.
As for `CS(=O)(=O)c1c([C@@H]2C[C@H]3CC[C@@H](C2)N3C(=O)c2nnc[nH]2)nc2c(-c3cccnc3)cnn2c1N` [Compound 3.69, ((1R,3s,5S)-3-(7-amino-6-(methylsulfonyl)-3-(pyridin-3-yl)pyrazolo[1,5-a]pyrimidin-5-yl)-8-azabicyclo[3.2.1]octan-8-yl)(4H-1,2,4-triazol-3-yl)methanone], the IC50 in assay [1] (Table 3-1, PC3 cells) lay in the range of 100 to 1000 nM; in assay [2] (Table 3-1, PC3 cells), 100 to 1000 nM.
For `CC(=O)Nc1nc(C(=O)N2[C@@H]3CC[C@H]2C[C@H](c2nc4c(-c5ccc(-c6ccccc6)nc5)cnn4c(N)c2C(C)=O)C3)n[nH]1` [Compound 1.1.142, N-(3-((1R,3s,5S)-3-(6-acetyl-7-amino-3-(6-phenylpyridin-3-yl)pyrazolo[1,5-a]pyrimidin-5-yl)-8-azabicyclo[3.2.1]octane-8-carbonyl)-1H-1,2,4-triazol-5-yl)acetamide], the IC50 in assay [1] (setting [3]) and in assay [2] (setting [3]) was 100 to 1000 nM each time.
`Nc1c(Br)c([C@@H]2C[C@H]3CC[C@@H](C2)N3C(=O)c2nc[nH]n2)nc2c(-c3ccc(-c4ccccc4)nc3)cnn12` [Compound 2.1, ((1R,3s,5S)-3-(7-amino-6-bromo-3-(6-phenylpyridin-3-yl)pyrazolo[1,5-a]pyrimidin-5-yl)-8-azabicyclo[3.2.1]octan-8-yl)(1H-1,2,4-triazol-3-yl)methanone]: the IC50 in assay [1] (setting [3]) lay within 1 to 100 nM; in assay [2] (setting [3]), 100 to 1000 nM.
With `CS(=O)(=O)c1c([C@@H]2C[C@H]3CC[C@@H](C2)N3C(=O)c2nnc[nH]2)nc2c(-c3ccc(-c4ccc(F)c(F)c4)nc3)cnn2c1N` [Compound 3.44, ((1R,3s,5S)-3-(7-amino-3-(6-(3,4-difluorophenyl)pyridin-3-yl)-6-(methylsulfonyl)pyrazolo[1,5-a]pyrimidin-5-yl)-8-azabicyclo[3.2.1]octan-8-yl)(4H-1,2,4-triazol-3-yl)methanone], the IC50 in assay [1] (setting [4]) and in assay [2] (setting [4]) was 1 to 100 nM in each case.
`[2H]C([2H])([2H])Oc1ccc(-c2ccc(-c3cnn4c(N)c(C(C)=O)c([C@@H]5C[C@H]6CC[C@@H](C5)N6C(=O)c5nnc[nH]5)nc34)cn2)cc1` [Compound 1.1.77, 1-(5-((1R,3s,5S)-8-(4H-1,2,4-triazole-3-carbonyl)-8-azabicyclo[3.2.1]octan-3-yl)-7-amino-3-(6-(4-methoxy-(D3)-phenyl)pyridin-3-yl)pyrazolo[1,5-a]pyrimidin-6-yl)ethanone]: the IC50 in assay [1] (setting [3]) and in assay [2] (setting [3]) was 1 to 100 nM each time.
For `CCC(O)c1ccc(-c2cnn3c(N)c(S(C)(=O)=O)c([C@@H]4C[C@H]5CC[C@@H](C4)N5C(=O)c4nnc[nH]4)nc23)cn1` (stereo partly drawn) [Compound 7.26, ((1R,3s,5S)-3-(7-amino-3-(6-(1-hydroxypropyl)pyridin-3-yl)-6-(methylsulfonyl)pyrazolo[1,5-a]pyrimidin-5-yl)-8-azabicyclo[3.2.1]octan-8-yl)(4H-1,2,4-triazol-3-yl)methanone], the IC50 in assay [1] (setting [6]) and in assay [2] (setting [6]) was 100 to 1000 nM each time.
Regarding `COc1ccc(-c2ncc(-c3cnn4c(N)c(S(C)(=O)=O)c([C@@H]5C[C@H]6CC[C@@H](C5)N6C(=O)c5nnc[nH]5)nc34)cn2)cc1F` [Compound 3.147, ((1R,3s,5S)-3-(7-amino-3-(2-(3-fluoro-4-methoxyphenyl)pyrimidin-5-yl)-6-(methylsulfonyl)pyrazolo[1,5-a]pyrimidin-5-yl)-8-azabicyclo[3.2.1]octan-8-yl)(4H-1,2,4-triazol-3-yl)methanone], the IC50 in assay [1] (setting [4]) and in assay [2] (setting [4]) was 1000 to 10000 nM each time.
Take `CC(=O)c1c([C@@H]2C[C@H]3CC[C@@H](C2)N3C(=O)c2nnc[nH]2)nc2c(-c3ccc(-c4ccc(F)cc4F)nc3)cnn2c1N` [Compound 1.1.148, 1-(5-((1R,3s,5S)-8-(4H-1,2,4-triazole-3-carbonyl)-8-azabicyclo[3.2.1]octan-3-yl)-7-amino-3-(6-(2,4-difluorophenyl)pyridin-3-yl)pyrazolo[1,5-a]pyrimidin-6-yl)ethanone]: the IC50 in assay [1] (setting [3]) and in assay [2] (setting [3]) was 1 to 100 nM in each case.
Turning to `Nc1nnc(C(=O)N2[C@@H]3CC[C@H]2C[C@H](c2nc4c(-c5ccc(C(N)(C(F)(F)F)C(F)(F)F)nc5)cnn4c(N)c2C2CC2)C3)[nH]1` [Compound 7.88, ((1R,3s,5S)-3-(7-amino-3-(6-(2-amino-1,1,1,3.3,3-hexafluoropropan-2-yl)pyridin-3-yl)-6-cyclopropylpyrazolo [1,5-a]pyrimidin-5-yl)-8-azabicyclo[3.2.1]octan-8-yl)(5-amino-4H-1,2,4-triazol-3-yl)methanone], the IC50 in assay [1] (Homo sapiens, PC-3, PC3 cells) was 1000 to 10000 nM; in assay [2] (Homo sapiens, PC-3, PC3 cells), 1000 to 10000 nM.
